Consider 30 compounds from patent US20240034717A1, “NOVEL POTASSIUM CHANNEL INHIBITORS” (Saniona A/S, priority 2020, published 2024).

Where only a bound is given, the exact number is not on record here.

The target of this experiment is erythrocyte KCa3.1 channels (Homo sapiens (Human), UniProt O15554). As to the kind of experiment: Erythrocyte KCa3.1 assay. Format: cell-based. As to conditions: human erythrocytes, A23187-activated KCa3.1; read-out: RBC K (in vitro) Human IC50 (μM) Potency category. Here is the method: Human blood was drawn from healthy human volunteers in a standard heparinized blood sampling vial (Vacutainer, Li/heparin, ED Bioscience, Plymouth, UK). The erythrocytes were packed by centrifugation, and the plasma and buffy coat were removed by aspiration. Erythrocytes were washed three times in the experimental salt solution and then stored at 0° C. until use. Blood samples from NMRI mice or from Wistar rats were treated similarly. The methodological principle is outlined in Macey et al. (1978) and further described in Strøbaek et al. (2013). Activation of the erythrocyte KCa3.1 channels were obtained by addition of the Ca^2+ ionophore A23187, which causes synchronized hyperpolarization, which is reported as a CCCP-mediated shift in the unbuffered extracellular pH of the erythrocyte suspension. Standard procedure: 3 mL unbuffered experimental salt solution (in mM: 2 KCl, 154 NaCl, 0.05 CaCl2) was heated to 37° C. with stirring. Packed erythrocytes were added (50 μL, final cytocrit 1.5%), and the extracellular pH (pHo) followed with a glass/calomel (pHG200-8/REF200, Radiometer, Denmark) electrode pair. CCCP (3 μL, final concentration 20 μM) was added followed by varying concentrations of test compounds (DMSO concentration constant). After pH stabilization at ˜7.2, A23187 (3 μL, final concentration 0.33 μM) was added to initiate the experiment. After the peak hyperpolarization was attained, the intracellular pH (pHi constant during the experiment) was found by haemolysing the erythrocytes via addition of 100 μL of Triton-X100.
The erythrocyte membrane potential, Vm, was calculated according to: […]
and the fractional remaining Ca^2+-activated K^+-conductance at the concentration C of blocker, fGK(C), was calculated from
where the K^+ equilibrium potential EK=−107 mV, the Cl^− equilibrium potential ECl=−12 mV and the Vm(0) and Vm(C) are the peak hyperpolarizations in the control and in the presence of a concentration of C of blocker respectively.
IC50 values for compounds were calculated from a plot of fGK(C) versus C by a fit to the Hill equation, using a custom program written in the IGOR-Pro software (WaveMetrics, Lake Oswego, OR, USA). All IC50-values are reported in μM.
The term IC50 denotes the concentration needed to halve the response being measured. Turning to `Fc1ccc(C2(NC[C@H]3CCCN3)CCC2)cc1C1CC1` [1-(3-cyclopropyl-4-fluorophenyl)-N-{[(2R)-pyrrolidin-2-yl]methyl}cyclobutan-1-amine], the IC50 is < 1 µM. In the case of `Fc1ccc(C2(NC[C@@H]3CCCN3)CCC2)cc1C1CC1` [1-(3-cyclopropyl-4-fluorophenyl)-N-{[(2S)-pyrrolidin-2-yl]methyl}cyclobutan-1-amine] it was < 1 µM; in that of `Fc1cc(C(F)(F)F)cc(C2(NC[C@H]3CCCN3)CCC2)c1` [1-[3-fluoro-5-(trifluoromethyl)phenyl]-N-{[(2R)-pyrrolidin-2-yl]methyl}cyclobutan-1-amine], < 1 µM; in that of `Fc1ccc(C2(NC[C@H]3CCCN3)CCC2)cc1C(F)(F)F` [1-[4-fluoro-3-(trifluoromethyl)phenyl]-N-{[(2R)-pyrrolidin-2-yl]methyl}cyclobutan-1-amine], < 1 µM.

Turning to `Fc1ccc(C2(NC[C@@H]3CCCN3)CCC2)cc1C(F)(F)F` [1-[4-fluoro-3-(trifluoromethyl)phenyl]-N-{[(2S)-pyrrolidin-2-yl]methyl}cyclobutan-1-amine], the IC50 is < 0.3 µM.

On to `CC(C)(N)CNC1(c2cccc(C(F)(F)F)c2)CCC1` [2-methyl-N1-{1-[3-(trifluoromethyl)phenyl]cyclobutyl}propane-1,2-diamine], for which the IC50 is < 0.3 µM.

Regarding `CS(=O)(=O)N(C[C@H]1CCCN1)C1(c2ccc(F)c(C(F)(F)F)c2)CC1` [(R)-N-(1-(4-fluoro-3-(trifluoromethyl)phenyl)cyclopropyl)-N-(pyrrolidin-2-ylmethyl) methane sulfonamide], the 50% inhibitory concentration (IC50) is < 1 µM. In the case of `O=C(OCC1CC1)N(C[C@@H]1CCCN1)C1(c2ccc(F)c(C(F)(F)F)c2)CC1` [Cyclopropylmethyl (S)-(1-(4-fluoro-3-(trifluoromethyl)phenyl)cyclopropyl)(pyrrolidin-2-ylmethyl)carbamate] it was < 0.3 µM. The value for `COC(=O)N(CCN)C1(c2ccc(F)c(C(F)(F)F)c2)CC1` [Methyl (2-aminoethyl)(1-(4-fluoro-3-(trifluoromethyl)phenyl)cyclopropyl)carbamate] was < 1 µM; that for `COC(=O)N(C[C@@H]1COCCN1C)C1(c2ccc(F)c(C(F)(F)F)c2)CC1` [Methyl (R)-(1-(4-fluoro-3-(trifluoromethyl)phenyl)cyclopropyl)((4-methylmorpholin-3-yl)methyl)carbamate] was < 0.3 µM; that for `COC(=O)N(C[C@@H]1COCCN1)C1(c2ccc(F)c(C(F)(F)F)c2)CC1` [Methyl (R)-(1-(4-fluoro-3-(trifluoromethyl)phenyl)cyclopropyl)(morpholin-3-ylmethyl) carbamate] was < 1 µM. The value for `COC(=O)N(CC(C)(C)N)C1(c2cc(Cl)ccc2F)CCC1` [Methyl N-(2-amino-2-methylpropyl)-N-[1-(5-chloro-2-fluorophenyl)cyclobutyl]carbamate] was < 1 µM.

`COC(=O)N(CC(C)(C)N)C1(c2cccc(OC(F)(F)F)c2)CCC1` [Methyl N-(2-amino-2-methylpropyl)-N-{1-[3-(trifluoromethoxy)phenyl]cyclobutyl}carbamate]: the IC50 is < 0.3 µM.

In the case of `COC(=O)N(CC(C)(C)N)C1(c2cc(F)cc(C(F)(F)F)c2)CCC1` [Methyl N-(2-amino-2-methylpropyl)-N-{1-[3-fluoro-5-(trifluoromethyl)phenyl]cyclobutyl}carbamate], the IC50 is < 0.3 µM. With `COC(=O)N(C[C@H]1CCCN1)C1(c2cccc(Cl)c2)CCC1` [Methyl N-[1-(3-chlorophenyl)cyclobutyl]-N-{[(2R)-pyrrolidin-2-yl]methyl}carbamate], the IC50 was < 0.3 µM. As for `COC(=O)N(C[C@@H]1CCCN1)C1(c2cccc(Cl)c2)CCC1` [Methyl N-[1-(3-chlorophenyl)cyclobutyl]-N-{[(2S)-pyrrolidin-2-yl]methyl}carbamate], the IC50 was < 0.3 µM. On to `COC(=O)N(C[C@@H]1CCCN1)C1(c2cc(Cl)ccc2F)CCC1` [Methyl N-[1-(5-chloro-2-fluorophenyl)cyclobutyl]-N-{[(2S)-pyrrolidin-2-yl]methyl}carbamate], for which the IC50 is < 1 µM.

`COC(=O)N(C[C@@H]1CCCN1)C1(c2cc(C(F)(F)F)ccc2F)CCC1` [Methyl N-{1-[2-fluoro-5-(trifluoromethyl)phenyl]cyclobutyl}-N-{[(2S)-pyrrolidin-2-yl]methyl}carbamate]: the IC50 was < 1 µM. In the case of `COC(=O)N(C[C@H]1CCCN1)C1(c2cc(F)cc(C(F)(F)F)c2)CCC1` [Methyl N-{1-[3-fluoro-5-(trifluoromethyl)phenyl]cyclobutyl}-N-{[(2R)-pyrrolidin-2-yl]methyl}carbamate], the concentration for half-maximal inhibition (IC50) was < 0.3 µM. Take `COC(=O)N(C[C@@H]1CCCN1)C1(c2cc(F)cc(C(F)(F)F)c2)CCC1` [Methyl N-{1-[3-fluoro-5-(trifluoromethyl)phenyl]cyclobutyl}-N-{[(2S)-pyrrolidin-2-yl]methyl}carbamate]: the IC50 is < 0.3 µM. As to `COC(=O)N(C[C@H]1CCCN1)C1(c2cccc(OC(F)(F)F)c2)CCC1` [Methyl N-{[(2R)-pyrrolidin-2-yl]methyl}-N-{1-[3-(trifluoromethoxy)phenyl]cyclobutyl}carbamate], the concentration for half-maximal inhibition (IC50) was < 0.3 µM. Turning to `COC(=O)N(C[C@@H]1CCCN1)C1(c2cccc(OC(F)(F)F)c2)CCC1` [Methyl N-{[(2S)-pyrrolidin-2-yl]methyl}-N-{1-[3-(trifluoromethoxy)phenyl]cyclobutyl}carbamate], the IC50 was < 0.3 µM. In the case of `COC(=O)N(C1CNC1)C1(c2ccc(F)c(C(F)(F)F)c2)CC1` [Methyl azetidin-3-yl(1-(4-fluoro-3-(trifluoromethyl)phenyl)cyclopropyl)carbamate] it was < 1 µM; in that of `CC(C)(N)CNC1(c2cccc(Cl)c2)CCC1` [N1-[1-(3-chlorophenyl)cyclobutyl]-2-methylpropane-1,2-diamine], < 0.3 µM; in that of `CC(C)(N)CN(C1CCC1)C1(c2cccc(C(F)(F)F)c2)CC1` [N1-cyclobutyl-2-methyl-N1-(1-(3-(trifluoromethyl)phenyl)cyclopropyl)propane-1,2-diamine], < 0.3 µM. The value for `CC(C)(N)CNC1(c2ccc(F)c(C(F)(F)F)c2)CCC1` [N1-{1-[4-fluoro-3-(trifluoromethyl)phenyl]cyclobutyl}-2-methylpropane-1,2-diamine] was < 0.3 µM; that for `CS(=O)(=O)N(CC1(N)CC1)C1(c2ccc(F)c(C(F)(F)F)c2)CC1` [N-((1-aminocyclopropyl)methyl)-N-(1-(4-fluoro-3-(trifluoromethyl)-phenyl)cyclopropyl)methanesulfonamide] was < 1 µM.

For `FC(F)(F)Oc1cccc(C2(NC[C@H]3CCCN3)CCC2)c1` [N-{[(2R)-pyrrolidin-2-yl]methyl}-1-[3-(trifluoromethoxy)phenyl]cyclobutan-1-amine], the IC50 is < 1 µM.

As for `FC(F)(F)c1cccc(C2(NC[C@H]3CCCN3)CCC2)c1` [N-{[(2R)-pyrrolidin-2-yl]methyl}-1-[3-(trifluoromethyl)phenyl]cyclobutan-1-amine], the IC50 was < 1 µM.

Consider `FC(F)(F)Oc1cccc(C2(NC[C@@H]3CCCN3)CCC2)c1` [N-{[(2S)-pyrrolidin-2-yl]methyl}-1-[3-(trifluoromethoxy)phenyl]cyclobutan-1-amine], for which the IC50 was < 1 µM.
